Several values for one entry are separate records, joined by “and”; a condition that tells them apart may be missing. Equal entries are not always repeated. Toxic doses and inconclusive results are not listed. Rule for the calls: active = survival T/C of 150% or more; inactive = T/C below 125% in these data.
Test system: P388 leukemia ip, CD2F1 mice, survival T/C
Assay: NCI In Vivo Anticancer Drug Screen. Data for tumor model P388 Leukemia (intraperitoneal) in CD2F1 (CDF1) mice
Settings: endpoint: median survival time, higher = longer survival
Summary of the method: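 Mice carrying the transplanted tumor received test compound or vehicle. Survival was recorded in each group, and the value is the treated-group measurement divided by that of the vehicle-treated control group.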

[1] = dose: 7.5 mg/kg/injection, schedule: Q01DX005 (ip), vehicle: Klucel (hydroxypropylcellulose) (HPC)
[2] = dose: 15.0 mg/kg/injection, schedule: Q01DX005 (ip), vehicle: Klucel (hydroxypropylcellulose) (HPC)
[3] = dose: 60.0 mg/kg/injection, schedule: Q01DX005 (ip), vehicle: Klucel (hydroxypropylcellulose) (HPC)
[4] = dose: 120.0 mg/kg/injection, schedule: Q01DX005 (ip), vehicle: Klucel (hydroxypropylcellulose) (HPC)
[5] = dose: 200.0 mg/kg/injection, schedule: Q01DX005 (ip), vehicle: saline with Tween-80
[6] = dose: 50.0 mg/kg/injection, schedule: Q01DX005 (ip), vehicle: Klucel (hydroxypropylcellulose) (HPC)
[7] = dose: 100.0 mg/kg/injection, schedule: Q01DX005 (ip), vehicle: Klucel (hydroxypropylcellulose) (HPC)
[8] = dose: 200.0 mg/kg/injection, schedule: Q01DX005 (ip), vehicle: Klucel (hydroxypropylcellulose) (HPC)
[9] = dose: 50.0 mg/kg/injection, schedule: Q01DX009 (ip), vehicle: Klucel (hydroxypropylcellulose) (HPC)
[10] = dose: 100.0 mg/kg/injection, schedule: Q01DX009 (ip), vehicle: Klucel (hydroxypropylcellulose) (HPC)
[11] = dose: 200.0 mg/kg/injection, schedule: Q01DX009 (ip), vehicle: Klucel (hydroxypropylcellulose) (HPC)
[12] = dose: 60.0 mg/kg/injection, schedule: Q01DX005 (ip), vehicle: saline with Tween-80
[13] = dose: 120.0 mg/kg/injection, schedule: Q01DX005 (ip), vehicle: saline with Tween-80
[14] = dose: 240.0 mg/kg/injection, schedule: Q01DX005 (ip), vehicle: saline with Tween-80
[15] = dose: 25.0 mg/kg/injection, schedule: Q01DX005 (ip), vehicle: Klucel (hydroxypropylcellulose) (HPC)
[16] = dose: 50.0 mg/kg/injection, schedule: Q01DX001 (ip), vehicle: Klucel (hydroxypropylcellulose) (HPC)
[17] = dose: 100.0 mg/kg/injection, schedule: Q01DX001 (ip), vehicle: Klucel (hydroxypropylcellulose) (HPC)
[18] = dose: 240.0 mg/kg/injection, schedule: Q01DX005 (ip), vehicle: Klucel (hydroxypropylcellulose) (HPC)
[19] = dose: 100.0 mg/kg/injection, schedule: Q04DX003 (ip), vehicle: Klucel (hydroxypropylcellulose) (HPC)
[20] = dose: 200.0 mg/kg/injection, schedule: Q04DX003 (ip), vehicle: Klucel (hydroxypropylcellulose) (HPC)
[21] = dose: 400.0 mg/kg/injection, schedule: Q04DX003 (ip), vehicle: Klucel (hydroxypropylcellulose) (HPC)

Measured: T/C

CC(C)=CCc1c(O)ccc(C(=O)[C@H]2C(c3ccc(O)cc3O)CC(C)=C[C@@H]2c2c(O)cc(O)c3c(=O)c(CC=C(C)C)c(-c4ccc(O)cc4O)oc23)c1O (some centres not stated)
inactive: [1] 92 % of control | [2] 97 % of control | dose: 30.0 mg/kg/injection, schedule: Q01DX005 (ip), vehicle: Klucel (hydroxypropylcellulose) (HPC) 93 % of control | [3] 108 % of control | [4] 92 % of control

O=C1C(CBr)(CBr)CCC12CN=C(Br)C2 (configuration not stated)
inactive: dose: 50.0 mg/kg/injection, schedule: Q01DX005 (ip), vehicle: saline with Tween-80 100 % of control | dose: 100.0 mg/kg/injection, schedule: Q01DX005 (ip), vehicle: saline with Tween-80 98 % of control | [5] 100 % of control

C=C(C)c1nc(N)nc(Nc2ccccc2)n1
inactive: [6] 103 % of control | [7] 111 % of control | [8] 106 % of control

COC(=O)N1CC2C=CC1C(Cl)(C#N)C2 (configuration not stated)
inactive: [9] 101 % of control | [10] 90 % of control | [11] 106 % of control

CC(NNC(=S)N1CCN(c2ccccn2)CC1)c1nccc2ccccc12 (configuration not stated)
inactive: dose: 12.5 mg/kg/injection, schedule: Q04DX002 (ip), vehicle: Klucel (hydroxypropylcellulose) (HPC) 100 % of control | dose: 25.0 mg/kg/injection, schedule: Q04DX002 (ip), vehicle: Klucel (hydroxypropylcellulose) (HPC) 100 % of control | dose: 50.0 mg/kg/injection, schedule: Q04DX002 (ip), vehicle: Klucel (hydroxypropylcellulose) (HPC) 103 % of control | dose: 100.0 mg/kg/injection, schedule: Q04DX002 (ip), vehicle: Klucel (hydroxypropylcellulose) (HPC) 122 % of control and 124 % of control | dose: 200.0 mg/kg/injection, schedule: Q04DX002 (ip), vehicle: Klucel (hydroxypropylcellulose) (HPC) 96 % of control

NC(=O)C(=O)c1cc(Cl)c(Cl)c(Cl)c1Cl
inactive: dose: 25.0 mg/kg/injection, schedule: Q01DX009 (ip), vehicle: saline with Tween-80 105 % of control | dose: 50.0 mg/kg/injection, schedule: Q01DX009 (ip), vehicle: saline with Tween-80 99 % of control | dose: 100.0 mg/kg/injection, schedule: Q01DX009 (ip), vehicle: saline with Tween-80 96 % of control

Oc1cc2c(cc1C(c1ccc(Cl)cc1)N1CCCCC1)OCO2 (configuration not stated)
inactive: [12] 117 % of control | [13] 118 % of control | [14] 119 % of control

Brc1cc(-c2ccccc2)no1
inactive: [9] 104 % of control | [10] 111 % of control | [11] 109 % of control

CN=c1ccc2nc3ccc(N)cc3sc-2c1
inactive: dose: 12.5 mg/kg/injection, schedule: Q01DX005 (ip), vehicle: saline 105 % of control | dose: 25.0 mg/kg/injection, schedule: Q01DX005 (ip), vehicle: saline 107 % of control | dose: 50.0 mg/kg/injection, schedule: Q01DX005 (ip), vehicle: saline 103 % of control

N#CC(=O)Nc1ccc(F)cc1
inactive: dose: 3.75 mg/kg/injection, schedule: Q01DX005 (ip), vehicle: saline with Tween-80 102 % of control | dose: 7.5 mg/kg/injection, schedule: Q01DX005 (ip), vehicle: saline with Tween-80 94 % of control | dose: 15.0 mg/kg/injection, schedule: Q01DX005 (ip), vehicle: saline with Tween-80 100 % of control and 107 % of control

Nc1cccc(S(=O)(=O)Nc2ncc(Cl)cn2)c1.[Ag]
inactive: dose: 50.0 mg/kg/injection, schedule: Q01DX009 (ip), vehicle: saline 93 % of control | dose: 100.0 mg/kg/injection, schedule: Q01DX009 (ip), vehicle: saline 108 % of control

O=NN(C(=O)NC1CCCC1)C1CCCC1
inactive: dose: 25.0 mg/kg/injection, schedule: Q01DX001 (ip), vehicle: distilled water + Tween-80 106 % of control | dose: 50.0 mg/kg/injection, schedule: Q01DX001 (ip), vehicle: distilled water + Tween-80 105 % of control | dose: 100.0 mg/kg/injection, schedule: Q01DX001 (ip), vehicle: distilled water + Tween-80 108 % of control | dose: 200.0 mg/kg/injection, schedule: Q01DX001 (ip), vehicle: distilled water + Tween-80 110 % of control | dose: 400.0 mg/kg/injection, schedule: Q01DX001 (ip), vehicle: distilled water + Tween-80 110 % of control

CCCCC(CC)C(=O)OC(C)C(=O)N(CCCC)CCCC (configuration not stated)
inactive: [15] 105 % of control | [6] 103 % of control | [7] 105 % of control | [8] 95 % of control

CCC(=O)/C=C/c1ccc(N(Cl)Cl)cc1
inactive: dose: 25.0 mg/kg/injection, schedule: Q01DX001 (ip), vehicle: Klucel (hydroxypropylcellulose) (HPC) 107 % of control | [16] 106 % of control | [17] 104 % of control

O=C(OCCCl)c1ccccc1NC(=O)N1CCOCC1
inactive: [6] 105 % of control | [7] 99 % of control | [8] 98 % of control

CCOCCOCCOC(C)Oc1cccc(C(=O)OCC)c1 (configuration not stated)
inactive: [12] 92 % of control | [13] 100 % of control | [14] 92 % of control

CNC(=O)OCCC(OC(=O)NC)C1CCC2C3CC=C4CC(OC(=O)NC)CCC4(C)C3CCC12C (configuration not stated)
inactive: [3] 99 % of control | [4] 93 % of control | [18] 100 % of control

COc1cc(NCCCCCCCNC(C)C)c2nccc(C)c2c1
inactive: dose: 3.13 mg/kg/injection, schedule: Q01DX009 (ip), vehicle: saline 105 % of control | dose: 6.25 mg/kg/injection, schedule: Q01DX009 (ip), vehicle: saline 102 % of control | dose: 12.5 mg/kg/injection, schedule: Q01DX009 (ip), vehicle: saline 99 % of control

CC(C)(C)[Si](C)(C)O[C@@H]1C=C(S(=O)(=O)c2ccccc2)[C@H](N2CCSCC2)C1
inactive: dose: 12.5 mg/kg/injection, schedule: Q01DX005 (ip), vehicle: Klucel (hydroxypropylcellulose) (HPC) 101 % of control | [15] 97 % of control | [6] 92 % of control

C=Cn1c([N+](=O)[O-])cnc1/C=C/c1ccc(C(=O)OCCN2CCCCC2)cc1
inactive: dose: 100.0 mg/kg/injection, schedule: Q04DX002 (ip), vehicle: saline with Tween-80 90 % of control | [19] 105 % of control | dose: 200.0 mg/kg/injection, schedule: Q04DX002 (ip), vehicle: saline with Tween-80 90 % of control | [20] 102 % of control | dose: 400.0 mg/kg/injection, schedule: Q04DX002 (ip), vehicle: saline with Tween-80 90 % of control | [21] 102 % of control

Cc1nc2ccc(CCN3CCN(c4ccccc4Cl)CC3)cc2[nH]1
inactive: [16] 100 % of control | [17] 108 % of control and 120 % of control | dose: 200.0 mg/kg/injection, schedule: Q01DX001 (ip), vehicle: Klucel (hydroxypropylcellulose) (HPC) 116 % of control and 93 % of control

CCOC(=O)c1ccc(NC(=O)N(C2CCCCC2)C2CCCCC2)cc1
inactive: dose: 3.75 mg/kg/injection, schedule: Q01DX005 (ip), vehicle: Klucel (hydroxypropylcellulose) (HPC) 93 % of control | [1] 94 % of control | [2] 89 % of control | [18] 87 % of control

O=C1CC(O)(c2ccc(-c3ccccc3)cc2)CS1 (configuration not stated)
inactive: [19] 101 % of control | [20] 99 % of control | [21] 92 % of control

Cc1cccc(/C=N/Nc2nc3ccccc3s2)n1
inactive: dose: 6.25 mg/kg/injection, schedule: Q01DX005 (ip), vehicle: saline with Tween-80 90 % of control | dose: 12.5 mg/kg/injection, schedule: Q01DX005 (ip), vehicle: saline with Tween-80 89 % of control | [5] 99 % of control
